The source made the active and inactive calls. The rule behind the calls is not given here.

The source of these data is ChEMBL document CHEMBL6182942, “Discovery of a Selective, Novel TGF-βR1 Inhibitor GFH018 for the Treatment of Solid Tumors” (J Med Chem, 2025).

Data set [1] can be described thus: Apparent permeability across apical to basolateral side in dog MDCK-MDR1 cells at 2 uM measured over 150 mins by LC-MS/MS analysis. It counts as ADME, cell-based, Canis lupus familiaris.
Data set [2] can be described thus: Half life in CD-1 mouse at 1 mg/kg, iv by LC-MS/MS analysis. To be noted: in vivo. It is filed as ADME, organism-based.
Data set [3] is described as follows: Cmax in CD-1 mouse at 5 mg/kg, po via gavage by LC-MS/MS analysis. It is filed as ADME, organism-based. To be noted: in vivo.
A short description of data set [4]: AUC (0 to last) in CD-1 mouse at 5 mg/kg, po via gavage by LC-MS/MS analysis. It counts as ADME, organism-based. To be noted: in vivo.
A short description of data set [5]: Oral bioavailability in CD-1 mouse at 5 mg/kg via gavage by LC-MS/MS analysis. It is filed as ADME, organism-based. To be noted: in vivo.
The nature of data set [6]: Lipophilicity, log D of the compound. It counts as physicochemical. To be noted: octanol/water.
A short description of data set [7]: Protein binding in cynomolgus monkey plasma at 0.2 to 10 uM measured after 4 hrs by equilibrium dialysis based LC-MS/MS analysis. It counts as ADME, cell-free, Macaca fascicularis. To be noted: dose 0.2-10 µM, read-out: PPB (converted).
A further data set addresses Cytochrome P450 2C8 (Homo sapiens, UniProt P10632). Briefly: Inhibition of CYP2C8 in human liver microsomes using amodiaquine as substrate preincubated for 10 mins followed by NADPH regeneration system addition and measured after 10 mins by LC-MS/MS analysis. It is filed as ADME, Microsome. On the technique in general: Liver microsomes are vesicles of endoplasmic reticulum, rich in cytochrome P450 enzymes.

The target in another data set is Cytochrome P450 2C19 (Homo sapiens, UniProt P33261). Briefly: Inhibition of CYP2C19 in human liver microsomes using (S)-mephenytoin as substrate preincubated for 10 mins followed by NADPH regeneration system addition and measured after 20 mins by LC-MS/MS analysis. It counts as ADME, Microsome.
The nature of data set [8]: AUC (0 to last) in Sprague-Dawley rat at 30 mg/kg, po administered via gavage by LC-MS/MS analysis. To be noted: in vivo. It is filed as ADME, organism-based.
For a further data set, the system named is H22. In words: Antitumor activity against mouse H22 cells implanted in po dosed BALB/c mouse assessed as tumor growth inhibition administered twice daily for 11 days and measured 3 times per week during compound dosing. To be noted: dose lower […], dose upper 50.0 mg/kg, time 11.0 day. It counts as functional, organism-based.
The nature of data set [9]: Time at which unbound plasma concentration required to show cellular IC50 for inhibition of smad phosphorylation in mouse H22 cell implanted BALB/c mouse at 15 mg/kg, po administered twice daily for 11 days. It is filed as functional. To be noted: time 11 day.
The nature of data set [10]: Time at which unbound plasma concentration required to show cellular IC50 for inhibition of smad phosphorylation in mouse H22 cell implanted BALB/c mouse at 50 mg/kg, po administered twice daily for 11 days. It counts as functional. To be noted: time 11 day.
Data set [11] in a line: Tmax in mouse H22 cell implanted BALB/c mouse at 15 to 50 mg/kg, po administered twice daily for 11 days. It counts as ADME, organism-based. To be noted: in vivo, dose 15-50 mg/kg, time 11 day.
Another data set relates to Mus musculus. In words: In vivo inhibition of TGFbetaR1 in mouse H22 cell implanted BALB/c mouse assessed as reduction in Smad phosphorylation at 15 to 50 mg/kg, po administered twice daily for 11 days measured 1 to 12 hrs post-last dose by immunoblotting analysis. It counts as functional, organism-based. To be noted: dose lower […], dose upper 50.0 mg/kg, time 11.0 day. For orientation: In western blotting, separated proteins are transferred to a membrane and probed.

A further data set deals with 4T1-Luc. In words: Antimetastatic activity against mouse 4T1-Luc cells implanted in BALB/c mouse assessed as reduction in metastatic rate in intestine at 100 mg/kg, po administered daily for 32 days and measured on day 30 to 35 by IVIS fluorescence analysis. To be noted: time 35.0 day. It counts as functional, organism-based.
The next data set has as its system HUVEC. In words: Antiangiogenesis activity in HUVEC assessed as inhibition of vascular structure formation measured after 6 hrs by matrigel based inverted fluorescence microscopy. It is filed as functional, cell-based. To be noted: Homo sapiens, dose 0.1-10 µM.
Data set [12] in a line: Drug metabolism in human liver microsomes. It is filed as ADME, Microsome.
A short description of data set [13]: Drug metabolism in rat hepatocytes. It is filed as ADME, cell-based, Hepatocyte.
Data set [14] has as its target Tyrosine-protein kinase Lck (Homo sapiens) (UniProt P06239). In words: Inhibition of LCK (unknown origin) assessed as residual activity at 1 uM relative to control.
Data set [15] has as its target TRAF2 and NCK-interacting protein kinase (Homo sapiens) (UniProt Q9UKE5). Briefly: Inhibition of TNIK (unknown origin) assessed as residual activity at 1 uM relative to control.

Sequence of Cytochrome P450 2C19 (P33261 whole entry): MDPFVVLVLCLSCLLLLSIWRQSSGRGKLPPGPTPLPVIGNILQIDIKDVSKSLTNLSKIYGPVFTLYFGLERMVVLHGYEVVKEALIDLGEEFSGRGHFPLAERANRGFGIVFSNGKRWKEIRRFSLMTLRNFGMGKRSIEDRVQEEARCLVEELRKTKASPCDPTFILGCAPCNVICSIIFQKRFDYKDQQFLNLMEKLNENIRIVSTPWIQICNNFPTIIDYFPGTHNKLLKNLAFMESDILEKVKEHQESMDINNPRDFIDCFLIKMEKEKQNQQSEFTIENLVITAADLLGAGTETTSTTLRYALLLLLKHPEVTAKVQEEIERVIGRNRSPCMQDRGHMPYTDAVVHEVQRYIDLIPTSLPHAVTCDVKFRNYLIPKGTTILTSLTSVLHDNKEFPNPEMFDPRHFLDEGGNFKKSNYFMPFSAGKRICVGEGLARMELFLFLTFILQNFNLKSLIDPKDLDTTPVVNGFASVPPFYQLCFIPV
Sequence of Cytochrome P450 2C8 (P10632 whole entry): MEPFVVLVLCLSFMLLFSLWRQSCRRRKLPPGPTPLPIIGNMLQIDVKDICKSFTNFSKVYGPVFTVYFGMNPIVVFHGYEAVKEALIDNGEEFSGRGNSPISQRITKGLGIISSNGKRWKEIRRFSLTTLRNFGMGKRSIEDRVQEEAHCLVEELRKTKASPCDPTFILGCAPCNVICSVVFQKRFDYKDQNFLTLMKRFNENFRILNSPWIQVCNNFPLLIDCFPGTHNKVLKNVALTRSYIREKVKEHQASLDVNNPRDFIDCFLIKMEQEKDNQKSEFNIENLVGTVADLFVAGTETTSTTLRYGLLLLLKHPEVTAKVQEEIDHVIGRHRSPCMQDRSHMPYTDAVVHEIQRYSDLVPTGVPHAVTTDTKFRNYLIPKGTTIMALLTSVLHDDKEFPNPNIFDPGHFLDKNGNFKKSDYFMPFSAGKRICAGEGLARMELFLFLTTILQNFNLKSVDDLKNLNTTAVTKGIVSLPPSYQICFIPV
Sequence of TRAF2 and NCK-interacting protein kinase (Homo sapiens) (Q9UKE5 whole entry, looked up): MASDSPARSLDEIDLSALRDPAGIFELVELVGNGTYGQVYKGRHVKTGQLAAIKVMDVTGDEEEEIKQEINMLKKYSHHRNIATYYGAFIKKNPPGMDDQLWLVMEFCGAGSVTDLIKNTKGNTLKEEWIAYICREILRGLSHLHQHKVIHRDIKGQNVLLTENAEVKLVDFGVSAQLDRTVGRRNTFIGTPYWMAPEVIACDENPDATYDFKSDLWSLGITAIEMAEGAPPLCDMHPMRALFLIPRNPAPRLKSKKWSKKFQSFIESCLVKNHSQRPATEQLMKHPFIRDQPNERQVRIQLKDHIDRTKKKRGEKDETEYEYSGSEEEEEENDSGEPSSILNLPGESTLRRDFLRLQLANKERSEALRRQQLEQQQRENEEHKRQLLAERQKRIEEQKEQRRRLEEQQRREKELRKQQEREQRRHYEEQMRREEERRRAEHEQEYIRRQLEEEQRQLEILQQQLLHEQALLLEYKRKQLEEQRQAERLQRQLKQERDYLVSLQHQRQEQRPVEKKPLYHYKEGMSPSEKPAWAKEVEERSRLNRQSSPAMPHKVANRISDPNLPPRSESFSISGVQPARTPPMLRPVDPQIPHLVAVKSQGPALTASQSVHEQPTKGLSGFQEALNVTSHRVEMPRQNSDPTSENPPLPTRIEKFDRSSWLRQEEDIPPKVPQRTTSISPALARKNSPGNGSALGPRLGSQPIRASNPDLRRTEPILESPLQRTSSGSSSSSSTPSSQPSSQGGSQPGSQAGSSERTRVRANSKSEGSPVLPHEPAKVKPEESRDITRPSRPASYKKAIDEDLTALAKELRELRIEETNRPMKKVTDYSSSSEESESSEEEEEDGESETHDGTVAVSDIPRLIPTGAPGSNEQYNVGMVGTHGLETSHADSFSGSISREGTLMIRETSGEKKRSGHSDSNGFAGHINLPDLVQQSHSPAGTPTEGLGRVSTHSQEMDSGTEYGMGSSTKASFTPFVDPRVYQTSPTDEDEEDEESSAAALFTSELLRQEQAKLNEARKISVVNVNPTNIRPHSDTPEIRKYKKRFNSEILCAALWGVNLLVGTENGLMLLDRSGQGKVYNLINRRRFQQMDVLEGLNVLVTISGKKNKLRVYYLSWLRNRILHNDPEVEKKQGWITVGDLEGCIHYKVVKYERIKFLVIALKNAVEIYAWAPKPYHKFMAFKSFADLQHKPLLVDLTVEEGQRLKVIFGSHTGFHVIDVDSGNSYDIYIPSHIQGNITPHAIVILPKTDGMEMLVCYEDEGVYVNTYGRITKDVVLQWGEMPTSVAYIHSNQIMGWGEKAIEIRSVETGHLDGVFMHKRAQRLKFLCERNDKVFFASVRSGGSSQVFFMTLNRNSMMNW
Sequence of Tyrosine-protein kinase Lck (Homo sapiens) (P06239 2-509 limits assumed): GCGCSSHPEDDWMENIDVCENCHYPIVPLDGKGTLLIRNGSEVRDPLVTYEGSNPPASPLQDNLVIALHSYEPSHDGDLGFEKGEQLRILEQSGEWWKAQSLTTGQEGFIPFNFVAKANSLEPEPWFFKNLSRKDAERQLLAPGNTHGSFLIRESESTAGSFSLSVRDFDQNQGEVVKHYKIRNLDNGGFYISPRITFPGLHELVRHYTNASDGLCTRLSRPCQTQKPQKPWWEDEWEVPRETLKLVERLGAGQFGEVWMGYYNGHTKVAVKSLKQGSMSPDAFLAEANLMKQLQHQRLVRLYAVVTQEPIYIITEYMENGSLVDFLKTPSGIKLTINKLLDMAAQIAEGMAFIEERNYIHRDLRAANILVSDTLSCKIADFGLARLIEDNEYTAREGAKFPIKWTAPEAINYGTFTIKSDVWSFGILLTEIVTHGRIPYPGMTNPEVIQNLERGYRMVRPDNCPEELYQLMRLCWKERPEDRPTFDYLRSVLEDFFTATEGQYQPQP

As for `Cc1cccc(-c2nn3c(c2-c2ccc4ncnn4c2/C=C/C(N)=O)CCC3)n1`, the apical-to-basolateral permeability (Papp A→B) at 2.5 h, 2 µM in data set [1] turned out to be 0.39 ×10⁻⁶ cm/s. Further, in data set [2], the half-life is 29 min. The Cmax in data set [3] is recorded as 355 nM/ml. For the same compound, the values for the AUClast in [4] and in data set [8] were 285 nM.hr/ml and 9614 nM.hr/ml, respectively. Further, in [5], the bioavailability came to 8.74%. For the same compound, in [6], the logD turned out to be 1.36. Also, the fraction unbound at 4 h, up to 10 µM in data set [7] is 0.522. Also, the IC50 at Cytochrome P450 2C8 and at Cytochrome P450 2C19 was over 100 µM throughout. Further, the TGI entry with H22 was “Dose-dependent-effect”. The “T>IC50” value is about 3.5 h in data set [9] and about 5.5 h in data set [10]. Moreover, in [11], the time to peak (Tmax) is 60 min. The inhibition entry was “Active; Observed A Significant Decline In Phosphorylated Smad3 Protein At 1 H But Nearly Absent At […] Hrs” in the data set on Mus musculus and “Dose-dependent-effect” with HUVEC. Besides, in the data set on 4T1-Luc, the outcome was Active. Further, the Drug metabolism entry in [12] and in [13] was “metabolite_detected” each time. The Activity in data set [14] and in [15] was under 50% each time.

As a reminder, the Papp A→B is the apparent permeability from the apical to the basolateral side of a cell layer. In general, half-life refers to the time in which the quantity being followed falls by half. What is called bioavailability is the share of a dose that reaches the circulation, judged against a reference dose that is usually intravenous. A word on the logD: it is lipophilicity at a set pH, counting ionised and neutral species. In general, IC50 refers to the midpoint of a concentration-inhibition curve. For orientation: Tmax means the time at which the peak concentration occurs.
